These results are taken from patent US20250090614A1, “COMPOSITIONS AND METHODS FOR IMPROVING LUNG FUNCTION” (priority 2023, published 2025).

Common to all, as to assay type: in vivo, mouse
Settings in all cases: aged C57BL/6 mice, 25 mg/kg p.o. each substance, 90 days

One experiment concerns old C57b1/6 mice. Kind of experiment: Tidal volume by whole-body plethysmography in aged mice. The protocol:
The experiments were performed in old C57b1/6 mice (28-30 weeks). Table 1 discloses the groups of mice used for the experimentation. C57BL/6 mice were bred and naturally aged in a pathogen-free colony. Mice were group-housed six per cage for the treatment regimen and maintained on a 12-hr light-dark schedule with ad libitum access to food and water. All experiments were designed according to the principles of animal use for gerontological research (Miller, R. A., & Nadon, N. L. (2000). Principles of animal use for gerontological research. Journals of Gerontology. Series A, Biological Sciences and Medical Sciences, 55, B117-B123) [table] The above test substances were administered to the mice for a period of 90 days. Rapamycin was used as a positive control. […] The respiratory muscle function in the study animals was assessed by estimating the Tidal Volume, Minute ventilation, Transdiaphragmatic pressure ([…]) and Respiratory rate. […] In the present study, ventilatory parameters were measured in awake mice during eupnoea (spontaneous breathing of room air) using a whole-body plethysmography system. […] Recordings were taken after 10 min of acclimatization and recorded for one hour. Recorded parameters included tidal volume and minute ventilation

A further experiment concerns mTOR. Kind of experiment: mTOR ELISA in lung tissue homogenate of aged mice. As to the method: The experiments were performed in old C57b1/6 mice (28-30 weeks). Table 1 discloses the groups of mice used for the experimentation. C57BL/6 mice were bred and naturally aged in a pathogen-free colony. Mice were group-housed six per cage for the treatment regimen and maintained on a 12-hr light-dark schedule with ad libitum access to food and water. All experiments were designed according to the principles of animal use for gerontological research (Miller, R. A., & Nadon, N. L. (2000). Principles of animal use for gerontological research. Journals of Gerontology. Series A, Biological Sciences and Medical Sciences, 55, B117-B123) [table] The above test substances were administered to the mice for a period of 90 days. Rapamycin was used as a positive control. After 90 days of administration experiments were performed to assess the respiratory muscle function, anatomical changes, cellular senescence and immunological changes. Activation of AMPK delays senescence. Abnormal autophagy and aging promote each other, and AMPK is an important regulator of this process. AMPK is involved in the transduction of several aging-related signaling pathways. AMPK intervenes in the development of many age-related diseases. […] These events contribute to the pathogenesis of age-related disorders.
For orientation: An ELISA detects its analyte on a solid surface through an enzyme-linked reagent.

The next experiment has as its system Immunoglobulin A (IgA). Kind of experiment: IgA ELISA in bronchoalveolar lavage fluid of aged mice. The protocol:
The experiments were performed in old C57b1/6 mice (28-30 weeks). Table 1 discloses the groups of mice used for the experimentation. C57BL/6 mice were bred and naturally aged in a pathogen-free colony. Mice were group-housed six per cage for the treatment regimen and maintained on a 12-hr light-dark schedule with ad libitum access to food and water. All experiments were designed according to the principles of animal use for gerontological research (Miller, R. A., & Nadon, N. L. (2000). Principles of animal use for gerontological research. Journals of Gerontology. Series A, Biological Sciences and Medical Sciences, 55, B117-B123) [table] The above test substances were administered to the mice for a period of 90 days. Rapamycin was used as a positive control. After 90 days of administration experiments were performed to assess the respiratory muscle function, anatomical changes, cellular senescence and immunological changes. Bronchoalveolar lavage (BAL) fluids in healthy older subjects have consistently shown an increased proportion of neutrophils and lower percentage of macrophages compared with younger adults. There is age-associated decline in immunoglobins IgA and IgM. […] Immunoglobulin A (IgA) is the most abundant Ig in mucosac where it plays key roles in host defense against pathogens and in mucosal immunoregulation. […]

For `O=C(/C=C/c1ccc(O)c(O)c1)O[C@H](Cc1ccc(O)c(O)c1)C(=O)O` [Rosmarinic acid], the tidal volume entry with old C57b1/6 mice (versus old mice control) was “increased”. The “tidal volume, comparison between treatment groups” value in the experiment on old C57b1/6 mice (Rapamycin 8 mg/kg p.o. positive control) was “better than control, and Rapamycin”. Besides, the “expression of mTOR” value with mTOR is given as “decreased”. In addition, the “expression of IgA” value in the experiment on Immunoglobulin A (IgA) is given as “increased”.
